According to patent publication US11628163B2, “1-piperidinepropionic acid for treating a fibrosing disease” (UNIVERSITÀ DEGLI STUDI DI PADOVA, priority 2017, dated 2023):
“Also recorded” adds a separate entry of the source.

B1: SerpinB3: recombinant SerpinB3 (Squamous Cell Carcinoma Antigen, SCCA1), a serine protease inhibitor, added as exogenous stimulus (protein, UniProt P29508 1-390, looked up)
Serpin B3: MNSLSEANTKFMFDLFQQFRKSKENNIFYSPISITSALGMVLLGAKDNTAQQIKKVLHFDQVTENTTGKAATYHVDRSGNVHHQFQKLLTEFNKSTDAYELKIANKLFGEKTYLFLQEYLDAIKKFYQTSVESVDFANAPEESRKKINSWVESQTNEKIKNLIPEGNIGSNTTLVLVNAIYFKGQWEKKFNKEDTKEEKFWPNKNTYKSIQMMRQYTSFHFASLEDVQAKVLEIPYKGKDLSMIVLLPNEIDGLQKLEEKLTAEKLMEWTSLQNMRETRVDLHLPRFKVEESYDLKDTLRTMGMVDIFNGDADLSGMTGSRGLVLSGVLHKAFVEVTEEGAEAAAATAVVGFGSSPTSTNEEFHCNHPFLFFIRQNKTNSILFYGRFSSP

Assays:
[1] = test system: experimental murine model of steatohepatitis (NASH); assay: Murine model of steatohepatitis (NASH): methionine- and choline-deficient diet (MCD), SerpinB3-transgenic and wild-type (C57BL/7) mice; format: in vivo; conditions: for liver histology: steatosis and lobular damage / relative liver weight (liver weight/body weight): MCD diet 8 weeks, i.p. daily from Week 4, PPA 0.01 μg/g or Curcumin 0.2 mg/g; for liver histology: steatosis and lobular damage: especially transgenic mice liver; for relative liver weight (liver weight/body weight): wild-type and SerpinB3-transgenic mice, more evident in transgenic mice
Procedure: PPA effect was also assessed in a murine model of fibrosing disease, in particular an experimental model of non-alcoholic steatohepatitis, which is a condition in which a fatty liver, associated with inflammation and fibrosis production, causes, among other things, a high risk of neoplastic transformation. In the study, both SerpinB3-transgenic mice and the respective wild-type (C57BL/7) strain were used, fed for 8 weeks with a methionine- and choline-deficient diet (MCD), which constitutes a recognized steatohepatitis induction model, or with a normal diet. MCD diet-treated transgenic and control mice groups starting from Week 4, were administered daily by intraperitoneal route, PPA (0.01 μg/g), or Curcumin (a molecule with a recognized anti-inflammatory and anti-fibrotic activity in animal models) as control, at standard concentrations (0.2 mg/g).
To assess PPA effect as SerpinB3 inhibitor in an experimental murine model of steatohepatitis (NASH), a condition with a high risk of hepatic tumor, both SerpinB3-transgenic mice and the respective wild-type (C57BL/7) strain were used.
The animals were fed for 8 weeks with a methionine- and choline-deficient diet (MCD), a recognized steatohepatitis induction model, or with a normal diet. MCD diet-treated transgenic and control mice groups, starting from Week 4, were administered daily, by intraperitoneal route, PPA (0.01 μg/g), or Curcumin (a molecule with a recognized anti-inflammatory and anti-fibrotic activity in animal models) as control, at the standard concentration of 0.2 mg/g. […] This effect was more evident in transgenic mice.

primary human monocytes = assay: Release of soluble CD163 (sCD163) by primary human monocytes; format: cell-based
Procedure: PPA effect was evaluated in this context as well, where primary monocytes incubated 1 week with SerpinB3 at a concentration of 200 ng/ml alone, or in association with PPA (100 ng/ml) were used. Monocytes kept in culture medium and monocytes treated with PPA alone at the same concentrations were used as controls.

SerpinB3 = SerpinB3 mRNA expression in HT29 tumor cells (real-time PCR); format: cell-based; conditions: 24 hours
Procedure: HT29 tumor cells, constitutively expressing SerpinB3, were used, […] cells/well were seeded into 6-well plates and kept 24 hours prior to treatment in modified McCoy medium (Sigma-Aldrich, Milan, Italy) supplemented with heat-inactivated 10% fetal calf serum, (Sigma-Aldrich, Milan, Italy), 100 U/ mL penicillin, […] streptomycin, and 20 mM L-glutamine (Sigma-Aldrich, Milan, Italy),
Then, PPA (1′-piperidinepropionic acid) was added, at a concentration of 100 ng/ml alone or in combination with recombinant SerpinB3 (SB3) at a concentration of 200 ng/ml, whereas the medium alone (untreated HT-29 cells) was added into control wells. After 24 hours of treatment cells were harvested, and extraction of total cell RNA and reverse transcription were performed according to standard protocols. mRNA SerpinB3 levels were measured by real-time PCR (sense: 5′-GCAAATGCTCCAGAAGAAAG-3′; reverse 5′-CGA GGC AAA ATGAAAA AGA TG-3′) and the results were normalized on the basis of data obtained with housekeeping HPRT1 (sense 5′-TCAGGCAGTATAATCC AAAGATGGT-3′; reverse 5′-[…] -3′).

[2] = SerpinB3 transgenic mice, MCD diet, PPA 0.01 μg/g i.p. daily from Week 4

Molecule | liver histology: steatosis and lobular damage [1] | liver histology: steatosis and lobular damage ([1]; listed as curcumin) | relative liver weight (liver weight/body weight) ([1]; listed as curcumin) | reduction of the inflammatory response ([1]; MCD diet, Curcumin 0.2 mg/g i.p. daily from Week 4) | sCD163 release in the culture medium after stimulation with SerpinB3 (primary human monocytes; primary monocytes, 1 week, SerpinB3 200 ng/ml + PPA 100 ng/ml) | spontaneous release of sCD163 (primary human monocytes; primary monocytes, PPA alone 100 ng/ml, compared with untreated monocytes) | relative liver weight (liver weight/body weight) [1] | IL-1 beta gene expression [1, 2] | Mcp1 gene expression [1, 2] | TNF-alpha gene expression [1, 2] | alpha-SMA (marker of stellate cell activation) gene expression ([1]; both strains (wild-type and SerpinB3-transgenic), MCD diet, PPA 0.01 μg/g i.p. daily from Week 4) | SerpinB3 expression (mRNA) after induction from exogenous SerpinB3 (SerpinB3; PPA 100 ng/ml + recombinant SerpinB3 200 ng/ml) | SerpinB3 expression (mRNA), constitutive (SerpinB3; PPA 100 ng/ml alone, normalized to HPRT1) | release of sCD163 induced by SerpinB3 (primary human monocytes; primary human monocytes, SerpinB3 200 ng/ml, preliminary results) | SerpinB3 expression (mRNA) after treatment with exogenous SerpinB3 (SerpinB3; recombinant SerpinB3 200 ng/ml)
COc1cc(/C=C/C(=O)CC(=O)/C=C/c2ccc(O)c(OC)c2)ccc1O [Curcumin, reference compound] | reduced | more marked steatosis, associated with a higher relative liver weight, compared to mice MCD diet-fed, but treated with PPA or curcumin | higher relative liver weight, compared to mice MCD diet-fed, but treated with PPA or curcumin | obtained also with curcumin | – | – | – | – | – | – | – | – | – | – | –
O=C(O)CCN1CCCCC1 [PPA, 1-piperidinepropionic acid] | reduced; also recorded: more marked steatosis, associated with a higher relative liver weight, compared to mice MCD diet-fed, but treated with PPA or curcumin | – | – | – | markedly reduced | reduces | reduced; also recorded: higher relative liver weight, compared to mice MCD diet-fed, but treated with PPA or curcumin; also recorded: higher relative liver weight (liver weight/body weight) after MCD diet, compared to mice treated with the same diet | significant decrease | significant decrease | increase was non-evident; also recorded: increase proved not evident | marked reduction | significantly reduce | significantly reduce; also recorded: inhibit SerpinB3 synthesis | – | –
B1 | – | – | – | – | – | – | – | – | – | – | – | – | – | induces the release | increased
